IC50 data for 2 molecules are collected here from ChEMBL document CHEMBL1158014, “Calamistrins A and B, two new cytotoxic monotetrahydrofuran annonaceous acetogenins from Uvaria calamistrata” (J Nat Prod, 1999).

Converted amounts (≈) assume the structure as drawn.

Assay type in all cases: functional, cell-based
Assay [1] relates to A2780. As to the kind of experiment: Cytotoxicity against human A2780 cells after 5 days by MTT assay. As to conditions: A2780, 120 h. A general note: Tetrazolium assays rely on reduction of a dye to a coloured formazan, in cell work by metabolically active cells.
The subject of assay [2] is KB. As to the kind of experiment: Cytotoxicity against human KB cells after 5 days by MTT assay. As to conditions: 120 h.
Assay [3] deals with HCT-8. As to the kind of experiment: Cytotoxicity against human HCT8 cells after 5 days by MTT assay. As to conditions: HCT-8, 120 h.

A word on the IC50: it is the concentration at which inhibition is half-maximal. High values mean weaker potency in that assay, low ones greater potency in that assay. In the case of `CCCCCCCCCCCC[C@H](O)[C@H]1CC[C@H]([C@H](O)C[C@@H](O)CCCCCCCCCCCCC2=C[C@H](C)OC2=O)O1` [CALAMISTRIN A], the IC50 in assay [1] worked out at 1.4 µg/mL (≈ 2.3 µM); in assay [2] it was 2 µg/mL (≈ 3.28 µM); in assay [3], 0.37 µg/mL (≈ 0.608 µM).

As for `CCCCCCCCCCCC[C@H](O)[C@H]1CC[C@H]([C@@H](C[C@H](O)CCCCCCCCCCCCC2=C[C@H](C)OC2=O)OC(C)=O)O1` [CALAMISTRIN B], the figures for the IC50 in assay [1], in assay [2] and in assay [3] were 3.1 µg/mL (≈ 4.76 µM), 6.1 µg/mL (≈ 9.37 µM) and 0.022 µg/mL (≈ 0.0338 µM), respectively.
